Values belong to the compound of their own block, whether it stands above or below them.
Assays:
[1] = target: T1, Calcium/calmodulin-dependent protein kinase type II subunit alpha (Rattus norvegicus, UniProt P11275); assay: Inhibition of […] binding to CaMKIIalpha in rat brain cortical membrane assessed as inhibition constant incubated for 1 hrs by TopCount NXT microplate scintillation counter analysis; format: cell membranes, Cortex; conditions: read-out: Ki
physchem = conditions: potassium phosphate buffer, pH 7.4
Description: Stability of compound in potassium phosphate buffer at pH 7.4 assessed as half-life

[2] = target: T1, Calcium/calmodulin-dependent protein kinase type II subunit alpha; assay: Inhibition of [3H]NCS-382 binding to CaMKIIalpha in rat brain cortical membrane assessed as inhibition constant incubated for 1 hrs by TopCount NXT microplate scintillation counter analysis; format: cell membranes, Cortex; conditions: read-out: Ki
[3] = Metabolic stability in pooled CD-1 mouse liver microsomes assessed as parent compound remaining at 10 uM measured after 30 mins in presence of NADPH regeneration system by LC-MS analysis; format: ADME, Microsome; conditions: read-out: Stability
[4] = Metabolic stability in pooled CD-1 mouse liver microsomes assessed as parent compound remaining at 10 uM measured after 15 mins in presence of NADPH regeneration system by LC-MS analysis; format: ADME, Microsome; conditions: read-out: Stability
[5] = Metabolic stability in pooled human plasma assessed as parent compound remaining at 20 uM measured immediately by LC-MS analysis; format: ADME, cell-free; conditions: read-out: Stability
[6] = Metabolic stability in pooled human plasma assessed as parent compound remaining at 20 uM measured after 60 mins by LC-MS analysis; format: ADME, cell-free; conditions: read-out: Stability
[7] = Metabolic stability in pooled human plasma assessed as parent compound remaining at 20 uM measured after 120 mins by LC-MS analysis; format: ADME, cell-free; conditions: read-out: Stability
[8] = Prodrug conversion in mouse plasma assessed as 2-(2,6-dichlorophenyl)thiazole-4-carboxylic acid release at 10 mg/kg, po measured after 0.5 hrs by LC-MS/MS analysis; format: ADME, organism-based; conditions: in vivo
[9] = Metabolic stability in pooled CD-1 mouse liver microsomes assessed as parent compound remaining at 10 uM measured immediately in presence of NADPH regeneration system by LC-MS analysis; format: ADME, Microsome; conditions: read-out: Stability
[10] = Metabolic stability in pooled CD-1 mouse liver microsomes assessed as parent compound remaining at 10 uM measured after 60 mins in presence of NADPH regeneration system by LC-MS analysis; format: ADME, Microsome; conditions: read-out: Stability
[11] = Prodrug conversion in mouse brain assessed as 2-(2,6-dichlorophenyl)thiazole-4-carboxylic acid release at 10 mg/kg, po measured after 0.5 hrs by LC-MS/MS analysis; format: ADME, organism-based; conditions: in vivo
[12] = Chemical stability of compound in phosphate buffer solution at pH 7.4; format: physicochemical
[13] = Metabolic stability in pooled human plasma assessed as parent compound remaining at 20 uM measured after 30 mins by LC-MS analysis; format: ADME, cell-free; conditions: read-out: Stability
[14] = Prodrug conversion in mouse plasma assessed as 2-(2,6-dichlorophenyl)thiazole-4-carboxylic acid concentration at 10 mg/kg, po measured after 0.5 hrs by LC-MS/MS analysis; format: ADME, organism-based; conditions: in vivo
[15] = Ratio of drug concentration in mouse brain to plasma at 10 mg/kg, po measured after 0.5 hrs by LC-MS/MS analysis; format: ADME, organism-based; conditions: brain and plasma, read-out: BPR
[16] = Ratio of unbound brain to plasma drug concentration in mouse at 10 mg/kg, po measured after 0.5 hrs by LC-MS/MS analysis; format: ADME, organism-based; conditions: brain and plasma, read-out: K(p,uu,brain)
[17] = Prodrug conversion in mouse brain assessed as 2-(2,6-dichlorophenyl)thiazole-4-carboxylic acid concentration at 10 mg/kg, po measured after 0.5 hrs by LC-MS/MS analysis; format: ADME, organism-based; conditions: in vivo
[18] = Drug concentration in mouse plasma at 10 mg/kg, po measured after 0.5 hrs by LC-MS/MS analysis; format: ADME, organism-based
[19] = Prodrug conversion in mouse assessed as ratio of unbound 2-(2,6-dichlorophenyl)thiazole-4-carboxylic acid concentration in brain to plasma at 10 mg/kg, po measured after 0.5 hrs by LC-MS/MS analysis; format: ADME, organism-based
[20] = Drug concentration in mouse brain at 10 mg/kg, po measured after 0.5 hrs by LC-MS/MS analysis; format: ADME, organism-based; conditions: read-out: Ct
[21] = Prodrug conversion in mouse assessed as ratio of 2-(2,6-dichlorophenyl)thiazole-4-carboxylic acid concentration in brain to plasma at 10 mg/kg, po measured after 0.5 hrs by LC-MS/MS analysis; format: ADME, organism-based
BCRP [22] = assay: Apparent permeability across apical to basolateral side in human Caco-2 cells transfected with human BCRP at 3 uM measured after 60 to 90 mins by LC-MS/MS analysis; format: ADME, cell-based; conditions: time 60-90 min
BCRP [23] = assay: Efflux ratio of apparent permeability across basolateral to apical side over apical to basolateral side in human Caco-2 cells transfected with human BCRP at 3 uM measured after 60 to 90 mins by LC-MS/MS analysis; format: ADME, cell-based; conditions: time 60-90 min
BCRP [24] = assay: Apparent permeability across basolateral to apical side in human Caco-2 cells transfected with human BCRP at 3 uM preincubated with novobiocin for 15 to 30 mins followed by compound addition and measured after 60 to 90 mins by LC-MS/MS analysis; format: ADME, cell-based; conditions: time 60-90 min
[25] = target: T2, Calcium/calmodulin-dependent protein kinase type II subunit alpha (Homo sapiens, UniProt Q9UQM7); assay: Induction of thermal stabilization of recombinant wildtype human CAMKIIalpha hub domain (345 to 475 residues) extracted from Escherichia coli BL21 (DE3) cells by differential scanning fluorimetric analysis; conditions: dose 0.625-320 µM
[26] = Ratio of unbound brain to plasma drug concentration in mouse at 10 mg/kg, ip measured after 0.5 hrs by LC-MS/MS analysis; format: ADME, organism-based; conditions: brain and plasma, read-out: K(p,uu,brain)
[27] = Drug concentration in mouse brain at 10 mg/kg, ip measured after 0.5 hrs by LC-MS/MS analysis; format: ADME, organism-based; conditions: read-out: Ct
BCRP [28] = assay: Apparent permeability across apical to basolateral side in human Caco-2 cells transfected with human BCRP at 3 uM preincubated with novobiocin for 15 to 30 mins followed by compound addition and measured after 60 to 90 mins by LC-MS/MS analysis; format: ADME, cell-based; conditions: time 60-90 min
[29] = target: T2, Calcium/calmodulin-dependent protein kinase type II subunit alpha; assay: Binding affinity to recombinant wildtype human CAMKIIalpha hub domain (345 to 475 residues) extracted from Escherichia coli BL21 (DE3) cells assessed as dissociation constant by SPR analysis
[30] = Drug concentration in mouse plasma at 10 mg/kg, ip measured after 0.5 hrs by LC-MS/MS analysis; format: ADME, organism-based
[31] = Ratio of drug concentration in mouse brain to plasma at 10 mg/kg, ip measured after 0.5 hrs by LC-MS/MS analysis; format: ADME, organism-based; conditions: brain and plasma, read-out: BPR
BCRP [32] = assay: Efflux ratio of apparent permeability across basolateral to apical side over apical to basolateral side in human Caco-2 cells transfected with human BCRP at 3 uM preincubated with novobiocin for 15 to 30 mins followed by compound addition and measured after 60 to 90 mins by LC-MS/MS analysis; format: ADME, cell-based; conditions: time 60-90 min
[33] = target: T2, Calcium/calmodulin-dependent protein kinase type II subunit alpha; assay: Induction of thermal stabilization of recombinant wildtype human CAMKIIalpha hub domain (345 to 475 residues) extracted from Escherichia coli BL21 (DE3) cells assessed as change in melting temperature at 0.625 to 320 microM by differential scanning fluorimetric analysis; conditions: dose 0.625-320 µM
BCRP [34] = assay: Apparent permeability across basolateral to apical side in human Caco-2 cells transfected with human BCRP at 3 uM measured after 60 to 90 mins by LC-MS/MS analysis; format: ADME, cell-based; conditions: time 60-90 min

T2 sequence (Q9UQM7 whole entry, the tested form may be a part): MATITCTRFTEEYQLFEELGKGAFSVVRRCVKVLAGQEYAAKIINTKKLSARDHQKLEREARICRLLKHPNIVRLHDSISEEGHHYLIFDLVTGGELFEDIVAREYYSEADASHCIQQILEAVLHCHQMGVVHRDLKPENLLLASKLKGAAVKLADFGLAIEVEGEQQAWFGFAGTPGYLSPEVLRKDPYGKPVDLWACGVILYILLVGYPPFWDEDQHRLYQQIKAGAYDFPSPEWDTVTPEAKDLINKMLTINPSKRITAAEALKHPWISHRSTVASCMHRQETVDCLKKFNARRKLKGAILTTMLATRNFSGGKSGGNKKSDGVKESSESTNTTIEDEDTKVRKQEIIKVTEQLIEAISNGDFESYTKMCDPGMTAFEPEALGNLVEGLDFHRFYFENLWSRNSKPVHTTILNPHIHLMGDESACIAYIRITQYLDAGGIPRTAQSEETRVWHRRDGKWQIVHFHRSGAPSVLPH
T1 sequence (P11275 whole entry): as the sequence (Q9UQM7 whole entry, the tested form may be a part) above, with S324N counted along it

- Ki [1]: 0.19 µM
Structure (SMILES): Clc1cccc(Cl)c1-c1nc(-c2nnn[nH]2)cs1

- Ki [1]: 3.2 µM
Structure (SMILES): O=C(O)c1csc(/C=C/c2ccccc2)n1

- Ki [1]: 2.6 µM
Structure (SMILES): O=C(O)c1csc(CCc2ccccc2)n1

- Ki [1]: 5.4 µM
Structure (SMILES): CCc1ccc(-c2nc(C(=O)O)cs2)cc1

- Ki [1]: 5 µM
Structure (SMILES): O=C(O)c1csc(-c2ccc(-c3ccccc3)cc2)n1

- Ki [1]: 0.9 µM
Structure (SMILES): Cc1ccccc1-c1nc(C(=O)O)cs1

- Ki [1]: 1.4 µM
Structure (SMILES): O=C(O)c1csc(Cc2ccccc2)n1

- Ki [1]: 1 µM
Structure (SMILES): O=C(O)c1csc(-c2ccccc2Cl)n1

- half-life (physchem): 2 min
Structure (SMILES): CCN(CC)CCOC(=O)c1ccc(N)cc1 [PROCAINE]

- Ki [2]: > 100 µM
Structure (SMILES): O=C(Nc1nc(C(=O)O)cs1)c1ccccc1

- Ki [1]: 0.71 µM
Structure (SMILES): O=C(O)c1csc(-c2c(F)cccc2F)n1

- Ki [1]: > 10 µM
Structure (SMILES): O=C(O)Cc1csc(-c2c(Cl)cccc2Cl)n1

- Ki [1]: 0.16 µM
Structure (SMILES): O=C(O)c1csc(-c2c(I)cccc2I)n1

- remaining at 0.5 h, 10 µM [3]: 75%
- remaining at 0.25 h, 10 µM [4]: 84%
- remaining at 0 min, 20 µM [5]: 100%
- remaining at 1 h, 20 µM [6]: 65%
- remaining at 2 h, 20 µM [7]: 63%
- Drug metabolism [8]: metabolite_notdetected
- remaining at 0 min, 10 µM [9]: 100%
- remaining at 1 h, 10 µM [10]: 59%
- Ki [1]: > 100 µM
- Drug metabolism [11]: metabolite_notdetected
- Stability [12]: Unstable
- remaining at 0.5 h, 20 µM [13]: 75%
Structure (SMILES): CC(C)(C)COC(=O)c1csc(-c2c(Cl)cccc2Cl)n1

- Ki [1]: 60.2 µM
Structure (SMILES): O=C(O)c1csc(-c2ccncc2)n1

- Ki [1]: 44.8 µM
Structure (SMILES): Clc1cccc(Cl)c1-c1nc(Cc2nnn[nH]2)cs1

- Ki [2]: 8 µM
Structure (SMILES): O=C(O)c1csc(-c2ccccc2O)n1

- remaining at 0.5 h, 10 µM [3]: 53%
- Cp [14]: 2154 ng/mL
- remaining at 0.25 h, 10 µM [4]: 70%
- Kp at 0.5 h [15]: 4.7
- remaining at 0 min, 20 µM [5]: 100%
- Kp uu at 0.5 h [16]: 0.49
- Ct [17]: 54 ng/g
- remaining at 1 h, 20 µM [6]: 74%
- remaining at 2 h, 20 µM [7]: 70%
- concentration at 0.5 h [18]: 137 ng/mL
- remaining at 0 min, 10 µM [9]: 100%
- remaining at 1 h, 10 µM [10]: 45%
- Ki [1]: 56.4 µM
- K(p,uu,brain) [19]: 0.13
- Stability [12]: Unstable
- concentration at 0.5 h [20]: 627 ng/g
- remaining at 0.5 h, 20 µM [13]: 78%
- BPR [21]: 0.03
Structure (SMILES): CC(C)(C)OC(=O)c1csc(-c2c(Cl)cccc2Cl)n1

- Ki [1]: 2 µM
Structure (SMILES): O=C(O)Cc1csc(-c2ccccc2Cl)n1

- Ki [1]: > 100 µM
Structure (SMILES): OC1(c2nc(-c3c(Cl)cccc3Cl)cs2)COC1

- remaining at 0.5 h, 10 µM [3]: 104%
- Papp A→B at 3 µM (BCRP [22]): 10.7 ×10⁻⁶ cm/s
- remaining at 0.25 h, 10 µM [4]: 101%
- efflux ratio at 3 µM (BCRP [23]): 1.06
- remaining at 0 min, 20 µM [5]: 100%
- Papp B→A at 3 µM (BCRP [24]): 11.4 ×10⁻⁶ cm/s
- remaining at 1 h, 20 µM [6]: 98%
- Activity [25]: Dose-dependent-effect
- Kp uu at 0.5 h [26]: 0.1
- remaining at 2 h, 20 µM [7]: 94%
- remaining at 0 min, 10 µM [9]: 100%
- remaining at 1 h, 10 µM [10]: 100%
- Ki [1]: 0.062 µM
- concentration at 0.5 h [27]: 350 ng/g
- Stability [12]: Stable
- Papp A→B at 3 µM (BCRP [28]): 10.9 ×10⁻⁶ cm/s
- Kd [29]: 0.759 µM
- remaining at 0.5 h, 20 µM [13]: 101%
- concentration at 0.5 h [30]: 18600 ng/mL
- Kp at 0.5 h [31]: 0.02
- efflux ratio at 3 µM (BCRP [32]): 1.05
- ΔTm [33]: 21.4 °C
- Papp B→A at 3 µM (BCRP [34]): 11.3 ×10⁻⁶ cm/s
Structure (SMILES): O=C(O)c1csc(-c2c(Cl)cccc2Cl)n1

- Ki [1]: 0.22 µM
Structure (SMILES): O=C(O)c1csc(-c2cccc3ccccc23)n1
